Results reported in patent publication US9550000B2, “Compositions, methods, and systems for the synthesis and use of imaging agents” (Lantheus Medical Imaging, Inc., priority 2011, dated 2017).

What was measured:
[1] = Dofetilide induced ECG changes in sham control and regional cardiac denervated rabbits; type: in vivo, rabbit; conditions: for Dofetilide induced events: PVC / Dofetilide induced events: TdP: 4 μg/kg/min iv infusion
Description: Dofetilide is an antiarrhythmic drug used clinically and known to cause QTc prolongation and possible TdP. The role of cardiac denervation in dofetilide induced changes in QTc interval, premature ventricular contraction (PVC) and TdP was assessed in sham control and RCSD rabbits at 3 weeks after surgery. Rabbits were anesthetized with ketamine (40 mg/kg, im) and xylazine (9 mg/kg, im), and dofetilide (1 and 4 μg/kg/min, Haorui Pharma-Chem Inc. Edison, N.J.) was infused for 10 minutes via a catheter in the marginal ear vein. Electrocardiogram (ECG) in lead II configuration was recorded with Ponemah system (v4.3, Data Science International) before and during the drug infusion. Heart rate (HR) and QT interval were derived from ECG waveforms. The QT interval was corrected by Fridericia method (QTcf=QT/RR^1/3).

[2] = humans, 500 μg twice a day; cited from earlier work

CN(CCOc1ccc(NS(C)(=O)=O)cc1)CCc1ccc(NS(C)(=O)=O)cc1 [dofetilide]
Dofetilide induced events: PVC ([1]; Denervated rabbits (n = 8)): 5 (63%) | Dofetilide induced events: TdP ([1]; Denervated rabbits (n = 8)): 2 (25%) | Dofetilide induced events: PVC ([1]; Sham rabbits (n = 6)): 3 (50%) | Dofetilide induced events: TdP ([1]; Sham rabbits (n = 6)): 1 (17%) | ECG changes on intravenous administration ([1]; sham control and RCSD rabbits, 1 and 4 μg/kg/min for 10 minutes): induced bradycardia and QT prolongation | bioavailability [2]: > 90%
